Laboratory results published in US11952368B2, “FAPI dimer compound, FAPI dimer-based positron emission tomography (PET) imaging agent for tumor diagnosis, and preparation method and use thereof” (XIAMEN UNIVERSITY, priority 2021, dated 2024).

Experiments:
[1] = Stability test: incubation in PBS or FBS, radiochemical purity by HPLC; type: in vitro ADME; details: 37° C., 1 h, 2 h, and 4 h
Description: (§1) 20 μL of a solution of the ^68Ga-2PEG(3)-FAPI-dimer (3.7 MBq activity/20 μL) prepared in Example 1 (with normal saline (NS) as a solvent) was taken and added to a centrifuge tube with 100 μL of FBS, and incubated at 37° C. for 1 h, 2 h, and 4 h to obtain an FBS co-incubation solution; 20 μL of the FBS co-incubation solution was taken, 40 μL of acetonitrile was added for protein precipitation, and a resulting mixture was filtered through a 0.22 μm needle filter membrane; and a radiochemical purity was analyzed through HPLC.
as §1, with “NS” for “normal saline (NS)”, “PBS (pH=7.4),” for “FBS,”, “a PBS” for “an FBS”, “PBS” for “FBS”, “taken” for “taken, 40 μL of acetonitrile was added for protein precipitation,”, “and” for “and a resulting mixture was”

FAP-expressing CAFs = assay: Cellular uptake and cellular uptake blockade in CAFs; type: cell-based, human
Description: A human HCC cell line Huh7 was purchased from the National Experimental Cell Resource Sharing Platform, China. CAFs were extracted from a surgical specimen of an HCC patient.
After the CAFs were verified as cells with high FAP expression, the next experiment was conducted. […]
FAP-expressing CAFs were inoculated in a 24-well plate and cultivated with a 10% (volume fraction) FBS-containing 1640 medium for 48 h before the experiment until a cell density was about 80% to 90%; the medium was changed to an FBS-free 1640 medium; and the ^68Ga-2PEG(3)-FAPI-dimer, ^68Ga-FAPI-46, or ^68Ga-2PEG(3)-FAPI-dimer+11.3 nmol FAPI-46 (for the blocking experiment) was added to the 24-well plate and incubated, with predetermined intervals of 10 min, 30 min, 60 min, 90 min, and 120 min. […] A half-inhibitory concentration (IC50s) was calculated by using GraphPad Prism to fit data through nonlinear regression. […]

HCC-PDX-1 [2] = assay: PET imaging in HCC-PDX-1 model; type: in vivo, mouse
Description: The PET imaging and biodistribution studies were conducted in HCC-PDX1 and HCC-PDX2 mouse models. The histological verification was first conducted, where the immunohistochemical staining and H&E staining were conducted for FAP and Ki67, a tumor tissue was digested for protein extraction, and the expression of FAP was detected by Western Blot. Verification results were shown in FIG. 6A-B, where the immunohistochemical staining result was shown in FIG. 6A and the Western Blot result was shown in FIG. 6B. […] Therefore, the models can be used for further mouse experiments.
The products of ^68Ga-2PEG(3)-FAPI-dimer and ^68Ga-FAPI-46 were each diluted to a concentration of 74 MBq/mL. 7.4 MBq of ^68Ga-2PEG(3)-FAPI-dimer or 7.4 MBq of ^68Ga-FAPI-46 was injected into the HCC-PDX model through the tail vein (3 parallel experiments per group). All PET scans were conducted with an Inveon small animal PET scanner (Siemens Preclinical Solution, USA). The dynamic PET imaging was conducted with a scan duration of 60 min and reconstructed frames of 10×30 s, 10×60 s, 10×120 s, and 9×160 s. The 10 min static PET imaging was conducted with acquisition time points of 0.5 h, 1 h, 2 h, and 4 h after injection. For the blocking experiment, 30 nmol of unlabeled FAPI-46 was added to a ^68Ga-2PEG(3)-FAPI-dimer solution (with NS as a solvent) before injection. An image was iteratively reconstructed with 3D OPMAP 256.pPetRcn (Siemens) and converted into a % ID/g image. Region of interests (ROIs) in the tumor, liver, heart, kidney, and muscle were calculated on PET images to quantify radioactive signals.

HCC-PDX-1 [3] = assay: Biodistribution in HCC-PDX-1 mice (gamma counter); type: in vivo, mouse; details: for tumor uptake: HCC-PDX-1, 1.48 MBq
Description: HCC-PDX-1 mice were injected with 1.48 MBq of ^68Ga-2PEG(3)-FAPI-dimer, and 1 h and 4 h after the injection (3 parallel experiments per time point), major organs and tumors were isolated, weighed, and analyzed. The ^68Ga-FAPI-46 group (1.48 MBq) and blocking group (1.48 MBq ^68Ga-2PEG(3)-FAPI-dimer+30 nmol unlabeled FAPI-46) were compared in terms of biodistribution.

- radiochemical purity after incubation in FBS ([1]; FBS): greater than 90%
- radiochemical purity after incubation in PBS ([1]; PBS (pH=7.4)): greater than 90%
- uptake in normal organs (HCC-PDX-1 [2]; HCC-PDX-1, 7.4 MBq via tail vein, PET): low and decline rapidly
- uptake and residence in tumor tissue compared with ^68Ga-FAPI-46 (HCC-PDX-1 [2]; HCC-PDX-1, 7.4 MBq via tail vein, PET 0.5 h, 1 h, 2 h, 4 h): better than
- blocking of tumor uptake by unlabeled FAPI-46 (HCC-PDX-1 [2]; two liver cancer PDX models (HCC-PDX-1 and HCC-PDX-2), 30 nmol unlabeled FAPI-46): can be blocked by unlabeled FAPI-46
- tumor uptake in the blocking group (HCC-PDX-1 [3]; HCC-PDX-1, 1.48 MBq + 30 nmol unlabeled FAPI-46, 1 h after injection): 1.07±0.19 % ID/g
- tumor uptake in the blocking group (HCC-PDX-1 [3]; HCC-PDX-1, 1.48 MBq + 30 nmol unlabeled FAPI-46, 4 h after injection): 1.14±0.15 % ID/g
- tumor uptake (HCC-PDX-1 [3]; 1 h after injection): 8.97±0.32 % ID/g
- tumor uptake (HCC-PDX-1 [3]; 4 h after injection): 7.61±0.64 % ID/g
Structure (SMILES): CN(CCCN1CCN(C(=O)COCCOCCOCCNC(=O)CCC(=O)N[C@@H](CCCCNC(=O)CN2CCN(CC(=O)[O-])CCN(CC(=O)[O-])CCN(CC(=O)[O-])CC2)C(=O)NCCOCCOCCOCC(=O)N2CCN(CCCN(C)c3ccc4nccc(C(=O)NCC(=O)N5CC(F)(F)C[C@H]5C#N)c4c3)CC2)CC1)c1ccc2nccc(C(=O)NCC(=O)N3CC(F)(F)C[C@H]3C#N)c2c1.[68Ga+3] [^68Ga-2PEG(3)-FAPI-dimer]
- cell uptake blockade: binding to FAP blocked by FAPI-46 precursor (FAP-expressing CAFs; +11.3 nmol FAPI-46): can significantly block
- absorption value relative to ^68Ga-FAPI-46 monomer in CAFs (FAP-expressing CAFs; incubation 10 min to 120 min): about twice
